Seven compounds from patent US20250326771A1, “PIPERAZINE DERIVATIVES USEFUL IN HIV THERAPY” (VIIV HEALTHCARE COMPANY, priority 2022, published 2025) can be followed below.

Molecules are shown by their SMILES. Read-outs that look alike come from different tables or passages of the source.

One assay concerns the target XIAP-BIR3 (Homo sapiens (Human), UniProt P98170). In words: BIR binding assay (FRET competition), XIAP BIR3. Particulars: for XIAP BIR3 vs BIR2 separation window: fold separation (FS) for XIAP. The procedure, abridged: (§1)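 615/665 nm FRET ratio. Compound, His-domain and 200 nM AF647-SMAC peptide incubated 60 min, then 2 nM Eu-W1024 for 30 min. Domains: cIAP1-BIR3 50 nM; XIAP-BIR3 100 nM; cIAP1-BIR2, cIAP2-BIR2 325 nM each. 15-pt 3-fold series; variable-slope IC50.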

The target in a further assay is XIAP-BIR2 (Homo sapiens (Human), UniProt P98170). Put plainly: BIR binding assay (FRET competition), XIAP BIR2. The procedure, abridged: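 Competitive TR-FRET used His-tagged XIAP-BIR2 (200 nM) and 200 nM AlexaFluor647-labelled AVPIAQKSE SMAC peptide in HEPES buffer pH 7.4 with CHAPS, glycerol and DTT, incubated 60 min before 30 min with 2 nM Eu-W1024. The 615/665 nm ratio from a 15-point, 3-fold series was fit with a four-parameter model for IC50/pIC50.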
Chain of XIAP-BIR2 (P98170 124-240): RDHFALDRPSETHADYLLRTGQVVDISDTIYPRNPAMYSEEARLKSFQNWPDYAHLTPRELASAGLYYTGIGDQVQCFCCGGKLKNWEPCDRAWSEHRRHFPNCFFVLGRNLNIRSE

The next assay deals with cIAP1-BIR3 (Homo sapiens (Human), UniProt Q13490). Put plainly: BIR binding assay (FRET competition), cIAP1 BIR3. The settings on record: for cIAP1 BIR3 vs BIR2 separation window: fold separation (FS) for cIAP1. Summed up:
as §1

A further assay has as its target cIAP2-BIR2 (Homo sapiens (Human), UniProt Q13489). Put plainly: BIR binding assay (FRET competition), cIAP2 BIR2. The procedure, abridged: as §1
Assay [1] relates to Jurkat HIV-luciferase clones. In words: Jurkat latency reversal assay. The settings on record: Homo sapiens, 48 h; Jurkat latency reversal assay potency; read-out: Jurkat pEC50 (converted). It is filed as cell-based. Summed up:
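Three pooled Jurkat reporter clones, each with one or two integrated HIV-luciferase proviruses, 5,000 cells/well; duplicate 14-point titrations starting at 10 μM; 48 h, 37° C, then Steady-Glo luminescence; four-parameter logistic analysis yields EC50 and percent maximal activation against DMSO vehicle.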

The target of the next assay is cIAP2-BIR3 (Homo sapiens (Human), UniProt Q13489). Put plainly: BIR binding assay (FRET competition), cIAP2 BIR3. Particulars: for cIAP2 BIR3 vs BIR2 separation window: fold separation (FS) for cIAP2.
Chain of cIAP2-BIR3 (Q13489 238-349): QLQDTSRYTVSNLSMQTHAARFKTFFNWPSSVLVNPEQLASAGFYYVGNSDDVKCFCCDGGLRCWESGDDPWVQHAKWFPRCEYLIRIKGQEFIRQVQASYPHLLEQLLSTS
A further assay deals with cIAP1-BIR2 (Homo sapiens (Human), UniProt Q13490). Put plainly: BIR binding assay (FRET competition), cIAP1 BIR2. The procedure, abridged: as §1
Chain of cIAP1-BIR2 (Q13490 173-257): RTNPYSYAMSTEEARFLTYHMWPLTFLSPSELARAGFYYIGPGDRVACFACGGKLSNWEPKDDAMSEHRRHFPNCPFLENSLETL
The mark [2] stands for this setting: FRET competition, read-out: XIAP BIR2 (pIC50) (converted).
Where [3] appears, read: FRET competition binding, read-out: XIAP BIR2 (pIC50) (converted).

Chain of cIAP2-BIR2 (Q13489 158-242): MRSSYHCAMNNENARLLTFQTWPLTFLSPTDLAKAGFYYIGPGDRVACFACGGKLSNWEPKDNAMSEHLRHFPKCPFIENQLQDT
Chain of XIAP-BIR3 (P98170 241-356): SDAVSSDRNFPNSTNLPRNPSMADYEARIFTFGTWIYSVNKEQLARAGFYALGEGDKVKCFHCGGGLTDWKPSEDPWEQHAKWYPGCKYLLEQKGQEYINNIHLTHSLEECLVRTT
Chain of cIAP1-BIR3 (Q13490 253-363): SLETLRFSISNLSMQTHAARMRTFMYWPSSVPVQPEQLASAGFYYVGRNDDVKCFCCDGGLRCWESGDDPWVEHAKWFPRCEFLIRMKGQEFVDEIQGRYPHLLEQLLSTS

As for `Cc1ccc(Cc2cc3c([nH]c2=O)C(C)(C)CN3C(=O)CN2C[C@@H](C)NC[C@@H]2CN2CCO[C@H](C(=O)NCc3ccc(CNC(=O)[C@@H]4CN(C[C@H]5CN[C@H](C)CN5CC(=O)N5CC(C)(C)c6[nH]c(=O)c(Cc7ccc(C)cc7)cc65)CCO4)cc3)C2)cc1` [Compound 163, (2S,2′S)-N,N′-(1,4-phenylenebis(methylene))bis(4-(((2R,5R)-1-(2-(3,3-dimethyl-6-(4-methylbenzyl)-5-oxo-2,3,4,5-tetrahydro-1H-pyrrolo[3,2-b]pyridin-1-yl)-2-oxoethyl)-5-methylpiperazin-2-yl)methyl)morpholine-2-carboxamide)], the IC50 on XIAP-BIR3 is 0.00794 to 0.0158 µM; at XIAP-BIR2 (setting [2]), 10 to 51.3 µM; at cIAP1-BIR3, 0.00138 to 0.00794 µM; on cIAP2-BIR2, 0.0224 to 1 µM; on cIAP2-BIR3 it was 0.00138 to 0.00794 µM; at cIAP1-BIR2, 0.0224 to 1 µM. Also, the “XIAP BIR3 vs BIR2 separation window” value at XIAP-BIR3 was “++++ (FS>10,000)”. The “cIAP1 BIR3 vs BIR2 separation window” value on cIAP1-BIR3 is reported as “++ (1,000>FS>100)”. For the same compound, the EC50 in assay [1] is 0.0126 to 0.0631 µM. Moreover, at cIAP2-BIR3, the “cIAP2 BIR3 vs BIR2 separation window” value was “+++ (10,000>FS>1,000)”.
`C[C@@H]1CN(CC(=O)N2CC(C)(C)c3[nH]c(=O)c(Cc4ccc(F)cc4)cc32)[C@@H](CN2CCC(CN(C)C(=O)c3cccc(C(=O)N(C)CC4CCN(C[C@H]5CN[C@H](C)CN5CC(=O)N5CC(C)(C)c6[nH]c(=O)c(Cc7ccc(F)cc7)cc65)CC4)c3)CC2)CN1` [Example 95, N^1,N^3-bis((1-(((2R,5R)-1-(2-(6-(4-fluorobenzyl)-3,3-dimethyl-5-oxo-2,3,4,5-tetrahydro-1H-pyrrolo[3,2-b]pyridin-1-yl)-2-oxoethyl)-5-methylpiperazin-2-yl)methyl)piperidin-4-yl)methyl)-N^1,N^3-dimethylisophthalamide]: the IC50 was 0.00794 to 0.0158 µM on XIAP-BIR3; 10 to 51.3 µM on XIAP-BIR2 (setting [3]); 0.0316 to 0.501 µM on cIAP1-BIR3; 1 to 3.16 µM on cIAP2-BIR2; 0.00138 to 0.00794 µM on cIAP2-BIR3; 1 to 3.16 µM on cIAP1-BIR2. The “XIAP BIR3 vs BIR2 separation window” value at XIAP-BIR3 was “++++ (FS>10,000)”. The “cIAP1 BIR3 vs BIR2 separation window” value on cIAP1-BIR3 was “++ (1,000>FS>100)”. Further, in assay [1], the EC50 was 0.0631 to 0.316 µM. The “cIAP2 BIR3 vs BIR2 separation window” value on cIAP2-BIR3 is listed as “+++ (10,000>FS>1,000)”.
Take `C[C@@H]1CN(CC(=O)N2CC(C)(C)c3[nH]c(=O)c(Cc4ccc(F)cc4)cc32)[C@@H](CN2CCC[C@H](NC(=O)Cc3ccc(CC(=O)N[C@H]4CCCN(C[C@H]5CN[C@H](C)CN5CC(=O)N5CC(C)(C)c6[nH]c(=O)c(Cc7ccc(F)cc7)cc65)C4)cc3)C2)CN1` [Example 42, 2,2′-(1,4-phenylene)bis(N-((S)-1-(((2R,5R)-1-(2-(6-(4-fluorobenzyl)-3,3-dimethyl-5-oxo-2,3,4,5-tetrahydro-1H-pyrrolo[3,2-b]pyridin-1-yl)-2-oxoethyl)-5-methylpiperazin-2-yl)methyl)piperidin-3-yl)acetamide)]: the IC50 lay in the range of 0.0316 to 0.501 µM on XIAP-BIR3, 0.0316 to 0.501 µM on cIAP1-BIR3, 3.16 to 10 µM on cIAP2-BIR2 and 3.16 to 10 µM at cIAP1-BIR2. For the same compound, on XIAP-BIR3, the “XIAP BIR3 vs BIR2 separation window” value is “+++ (10,000>FS>1,000)”. Also, the “XIAP BIR2 (pIC50)” value at XIAP-BIR2 (FRET competition binding) is recorded as “+ (4.29<pIC50<=5.00)”. In addition, the “cIAP1 BIR3 vs BIR2 separation window” value at cIAP1-BIR3 was “++ (1,000>FS>100)”. In assay [1], the EC50 was 0.316 to 3.31 µM. Moreover, the “cIAP2 BIR3 (pIC50)” value at cIAP2-BIR3 (FRET competition binding) is “++ (7.80>pIC50>=7.50)”. In addition, the “cIAP2 BIR3 vs BIR2 separation window” value on cIAP2-BIR3 was “+++ (10,000>FS>1,000)”.
Regarding `C[C@@H]1CN(CC(=O)N2CC(C)(C)c3[nH]c(=O)c(Cc4ccc(F)cc4)cc32)[C@@H](CN2CCN(C(=O)CN(C)CC(=O)N3CCN(C[C@H]4CN[C@H](C)CN4CC(=O)N4CC(C)(C)c5[nH]c(=O)c(Cc6ccc(F)cc6)cc54)[C@H](C)C3)C[C@H]2C)CN1` [Example 15, 1,1′-(2,2′-((3R,3′R,6R,6′R)-(((2R,2′R)-(2,2′-(methylazanediyl)bis(acetyl))bis(2-methylpiperazine-4,1-diyl))bis(methylene))bis(3-methylpiperazine-6,1-diyl))bis(acetyl))bis(6-(4-fluorobenzyl)-3,3-dimethyl-1,2,3,4-tetrahydro-5H-pyrrolo[3,2-b]pyridin-5-one)], the IC50 on XIAP-BIR3 is 0.00138 to 0.00794 µM; at XIAP-BIR2 (setting [3]), 10 to 51.3 µM; on cIAP1-BIR3 it was 0.00138 to 0.00794 µM; on cIAP2-BIR2, 0.0224 to 1 µM; on cIAP2-BIR3, 0.00138 to 0.00794 µM; on cIAP1-BIR2, 0.0224 to 1 µM. Further, the EC50 in assay [1] was 0.0631 to 0.316 µM.
As for `C[C@@H]1CN(CC(=O)N2CC(C)(C)c3[nH]c(=O)c(Cc4ccc(F)cc4)cc32)[C@@H](CN2CCO[C@H](COCC#CC#CCOC[C@@H]3CN(C[C@H]4CN[C@H](C)CN4CC(=O)N4CC(C)(C)c5[nH]c(=O)c(Cc6ccc(F)cc6)cc54)CCO3)C2)CN1` [Example 63, 1,1′-(2,2′-((3R,3′R,6R,6′R)-(((2S,2'S)-((hexa-2,4-diyne-1,6-diylbis(oxy))bis(methylene))bis(morpholine-2,4-diyl))bis(methylene))bis(3-methylpiperazine-6,1-diyl))bis(acetyl))bis(6-(4-fluorobenzyl)-3,3-dimethyl-1,2,3,4-tetrahydro-5H-pyrrolo[3,2-b]pyridin-5-one)], the IC50 at XIAP-BIR3 is 0.0158 to 0.0316 µM; at XIAP-BIR2 (setting [3]), 10 to 51.3 µM; at cIAP1-BIR3 it was 0.00794 to 0.0158 µM; on cIAP2-BIR2, 3.16 to 10 µM; at cIAP2-BIR3, 0.0158 to 0.0316 µM; on cIAP1-BIR2 it was 1 to 3.16 µM. Also, the EC50 in assay [1] was 0.0126 to 0.0631 µM.
For `Cc1c(NC(=O)[C@@H]2CN(C[C@H]3CN[C@H](C)CN3CC(=O)N3CC(C)(C)c4[nH]c(=O)c(Cc5ccc(F)cc5)cc43)CCO2)cccc1NC(=O)[C@@H]1CN(C[C@H]2CN[C@H](C)CN2CC(=O)N2CC(C)(C)c3[nH]c(=O)c(Cc4ccc(F)cc4)cc32)CCO1` [Compound 141, (2S,2′S)-N,N′-(2-methyl-1,3-phenylene)bis(4-(((2R,5R)-1-(2-(6-(4-fluorobenzyl)-3,3-dimethyl-5-oxo-2,3,4,5-tetrahydro-1H-pyrrolo[3,2-b]pyridin-1-yl)-2-oxoethyl)-5-methylpiperazin-2-yl)methyl)morpholine-2-carboxamide)], the IC50 on XIAP-BIR3 was 0.0158 to 0.0316 µM; on XIAP-BIR2 (setting [2]), 10 to 51.3 µM; at cIAP1-BIR3, 0.00794 to 0.0158 µM; on cIAP2-BIR2, 1 to 3.16 µM; on cIAP2-BIR3 it was 0.00794 to 0.0158 µM; at cIAP1-BIR2 it was 1 to 3.16 µM. For the same compound, on XIAP-BIR3, the “XIAP BIR3 vs BIR2 separation window” value is listed as “+++ (10,000>FS>1,000)”. For the same compound, the “cIAP1 BIR3 vs BIR2 separation window” value at cIAP1-BIR3 was “+++ (10,000>FS>1,000)”. Besides, in assay [1], the EC50 is 0.0126 to 0.0631 µM. For the same compound, the “cIAP2 BIR3 vs BIR2 separation window” value on cIAP2-BIR3 was “+++ (10,000>FS>1,000)”.
As to `C[C@@H]1CN(CC(=O)N2CC(C)(C)c3[nH]c(=O)c(Cc4ccc(F)cc4)cc32)[C@@H](CN2CCO[C@H](COc3ccc(F)c(OC[C@@H]4CN(C[C@H]5CN[C@H](C)CN5CC(=O)N5CC(C)(C)c6[nH]c(=O)c(Cc7ccc(F)cc7)cc65)CCO4)c3)C2)CN1` [Example 75, 1,1′-(2,2′-((3R,3′R,6R,6′R)-(((2S,2'S)-(((4-fluoro-1,3-phenylene)bis(oxy))bis(methylene))bis(morpholine-2,4-diyl))bis(methylene))bis(3-methylpiperazine-6,1-diyl))bis(acetyl))bis(6-(4-fluorobenzyl)-3,3-dimethyl-1,2,3,4-tetrahydro-5H-pyrrolo[3,2-b]pyridin-5-one)], the IC50 on XIAP-BIR3 was 0.00138 to 0.00794 µM; on XIAP-BIR2, 10 to 51.3 µM; at cIAP1-BIR3, 0.00138 to 0.00794 µM; at cIAP2-BIR2, 0.0224 to 1 µM; on cIAP2-BIR3, 0.00138 to 0.00794 µM; on cIAP1-BIR2 it was 0.0224 to 1 µM. For the same compound, the “XIAP BIR3 vs BIR2 separation window” value at XIAP-BIR3 is reported as “++++ (FS>10,000)”. The “cIAP1 BIR3 vs BIR2 separation window” value on cIAP1-BIR3 is reported as “+++ (10,000>FS>1,000)”. The EC50 in assay [1] was 0.00049 to 0.0126 µM. For the same compound, on cIAP2-BIR3, the “cIAP2 BIR3 vs BIR2 separation window” value was “+++ (10,000>FS>1,000)”.
